The source made the active and inactive calls. The rule behind the calls is not given here.
Assays:
Androgen receptor [1] = target: T1, Androgen receptor (Homo sapiens, UniProt P10275); experiment: Antagonist activity against Androgen receptor; not active; format: functional
T1 sequence (P10275 whole entry): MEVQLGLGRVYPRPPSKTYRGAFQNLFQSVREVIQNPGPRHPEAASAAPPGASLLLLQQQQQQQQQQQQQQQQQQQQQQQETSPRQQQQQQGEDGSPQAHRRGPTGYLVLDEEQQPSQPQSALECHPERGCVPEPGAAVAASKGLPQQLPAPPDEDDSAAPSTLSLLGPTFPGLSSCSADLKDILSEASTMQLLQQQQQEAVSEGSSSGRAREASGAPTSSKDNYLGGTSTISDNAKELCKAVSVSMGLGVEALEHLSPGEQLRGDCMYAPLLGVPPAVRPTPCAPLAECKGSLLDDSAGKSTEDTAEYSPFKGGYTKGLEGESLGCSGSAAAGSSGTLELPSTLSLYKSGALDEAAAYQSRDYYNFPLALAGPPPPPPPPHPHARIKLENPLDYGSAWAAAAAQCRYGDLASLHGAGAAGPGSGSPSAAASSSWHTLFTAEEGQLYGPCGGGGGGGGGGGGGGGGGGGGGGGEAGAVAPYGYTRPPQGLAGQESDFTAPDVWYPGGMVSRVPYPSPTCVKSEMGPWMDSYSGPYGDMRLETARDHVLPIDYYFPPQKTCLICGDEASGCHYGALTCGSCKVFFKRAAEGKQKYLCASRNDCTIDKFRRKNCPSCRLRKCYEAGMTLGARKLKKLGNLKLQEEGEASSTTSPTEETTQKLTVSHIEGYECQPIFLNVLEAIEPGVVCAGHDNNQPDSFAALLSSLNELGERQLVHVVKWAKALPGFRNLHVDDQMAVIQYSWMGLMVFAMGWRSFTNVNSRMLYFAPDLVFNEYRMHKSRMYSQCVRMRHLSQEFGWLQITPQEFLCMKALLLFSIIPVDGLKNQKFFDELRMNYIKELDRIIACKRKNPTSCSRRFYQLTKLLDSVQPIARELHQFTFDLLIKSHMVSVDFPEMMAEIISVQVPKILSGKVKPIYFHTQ

[2] = target: T2, Androgen receptor (Homo sapiens) (UniProt P10275); experiment: Antagonist efficacy at human androgen (hAR) receptor; not active; format: functional
T2 sequence (whole entry): T1 sequence (P10275 whole entry)

Androgen receptor [3] = target: T1, Androgen receptor; experiment: Antagonist activity against human Androgen receptor; format: functional
Estrogen receptor = Estrogen receptor (Homo sapiens, UniProt Q92731+P03372); experiment: Antagonist efficacy with Estrogen receptor; Efficacy <20% and/or potency >[…] nM; format: functional
[4] = target: T3, Mineralocorticoid receptor (Homo sapiens) (UniProt P08235); experiment: Antagonist activity at mineralocorticoid receptor (hMR); Efficacy <20% and/or potency >[…] nM; format: functional
T3 sequence (whole entry): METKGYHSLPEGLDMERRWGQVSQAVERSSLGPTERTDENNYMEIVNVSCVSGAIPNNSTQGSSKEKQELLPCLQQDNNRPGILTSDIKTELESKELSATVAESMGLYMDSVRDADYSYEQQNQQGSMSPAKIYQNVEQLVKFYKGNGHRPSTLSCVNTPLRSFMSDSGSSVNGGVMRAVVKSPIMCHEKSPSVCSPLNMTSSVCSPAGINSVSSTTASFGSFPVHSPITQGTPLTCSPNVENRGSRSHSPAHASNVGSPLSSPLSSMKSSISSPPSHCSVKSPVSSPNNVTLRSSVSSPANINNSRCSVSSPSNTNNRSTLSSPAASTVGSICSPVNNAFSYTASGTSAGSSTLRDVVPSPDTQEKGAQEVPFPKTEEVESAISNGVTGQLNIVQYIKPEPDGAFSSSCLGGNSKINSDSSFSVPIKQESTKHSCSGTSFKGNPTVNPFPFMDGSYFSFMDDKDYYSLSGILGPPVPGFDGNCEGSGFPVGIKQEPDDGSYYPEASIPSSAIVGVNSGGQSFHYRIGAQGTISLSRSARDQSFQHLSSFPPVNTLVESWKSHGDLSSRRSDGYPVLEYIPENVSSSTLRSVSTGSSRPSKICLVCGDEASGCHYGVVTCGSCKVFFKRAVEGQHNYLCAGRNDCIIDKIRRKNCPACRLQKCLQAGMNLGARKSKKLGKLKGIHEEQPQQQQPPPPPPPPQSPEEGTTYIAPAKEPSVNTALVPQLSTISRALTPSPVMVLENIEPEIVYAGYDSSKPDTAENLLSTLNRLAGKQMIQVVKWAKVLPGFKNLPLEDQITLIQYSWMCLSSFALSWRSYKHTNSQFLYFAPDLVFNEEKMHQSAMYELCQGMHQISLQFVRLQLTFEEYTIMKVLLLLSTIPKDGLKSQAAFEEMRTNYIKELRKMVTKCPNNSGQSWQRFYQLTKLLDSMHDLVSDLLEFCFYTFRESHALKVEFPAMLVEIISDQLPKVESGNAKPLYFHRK

[5] = target: T3, Mineralocorticoid receptor (Homo sapiens); experiment: Antagonist efficacy at mineralocorticoid receptor (hMR); Efficacy <20% and/or potency >[…] nM; format: functional
[6] = target: T4, Glucocorticoid receptor (Homo sapiens) (UniProt P04150); experiment: Antagonist efficacy at glucocorticoid (hGR) receptor; format: functional
T4 sequence (whole entry): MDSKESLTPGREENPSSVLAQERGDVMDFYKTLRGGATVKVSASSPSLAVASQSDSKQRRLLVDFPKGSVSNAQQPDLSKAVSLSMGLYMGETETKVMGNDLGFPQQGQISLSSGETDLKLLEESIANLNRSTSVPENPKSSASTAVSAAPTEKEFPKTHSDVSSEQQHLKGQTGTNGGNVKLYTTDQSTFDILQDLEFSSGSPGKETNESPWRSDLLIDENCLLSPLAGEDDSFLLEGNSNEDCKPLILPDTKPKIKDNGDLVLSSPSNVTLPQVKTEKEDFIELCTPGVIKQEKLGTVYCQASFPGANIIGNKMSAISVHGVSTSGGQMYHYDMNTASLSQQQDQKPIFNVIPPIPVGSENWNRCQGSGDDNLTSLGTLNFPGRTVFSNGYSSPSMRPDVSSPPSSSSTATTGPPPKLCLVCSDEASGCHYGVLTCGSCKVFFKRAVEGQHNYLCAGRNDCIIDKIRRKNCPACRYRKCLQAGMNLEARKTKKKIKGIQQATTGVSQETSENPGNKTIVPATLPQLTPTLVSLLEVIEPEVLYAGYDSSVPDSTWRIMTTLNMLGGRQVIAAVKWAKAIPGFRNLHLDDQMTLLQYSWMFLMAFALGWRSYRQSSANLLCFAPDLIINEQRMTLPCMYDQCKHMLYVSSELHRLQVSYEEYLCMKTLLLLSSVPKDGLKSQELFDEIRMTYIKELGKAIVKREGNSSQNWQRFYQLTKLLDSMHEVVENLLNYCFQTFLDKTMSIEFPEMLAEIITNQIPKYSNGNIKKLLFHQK

Glucocorticoid receptor = target: T5, Glucocorticoid receptor (Homo sapiens, UniProt P04150)
T5 sequence (P04150 whole entry): T4 sequence (whole entry)

## CC(C)=C/C=C1\Oc2ccc(F)cc2-c2ccc3c(c21)C(C)=CC(C)(C)N3
Androgen receptor [1]
  IC50: > 1000 nM
[2]
  Efficacy: < 20%

## CC/C(C)=C1\Oc2ccc(F)cc2-c2ccc3c(c21)C(C)=CC(C)(C)N3
Androgen receptor [3]
  IC50: 250 nM
Estrogen receptor
  Efficacy: inactive
[4]
  Efficacy: inactive
[5]
  Efficacy: inactive

## CC(=O)C[C@]1(C(C)=O)CC[C@H]2C3C[C@H](C)C4=CC(=O)CC[C@]4(C)[C@H]3CC[C@@]21C (stereo partly drawn)
[6]
  Efficacy: 157%

## CC1=CC(C)(C)Nc2ccc3c(c21)/C(=C/Br)Oc1ccc(F)cc1-3
Glucocorticoid receptor
  IC50: > 1000 nM

Source: ChEMBL document CHEMBL1136068 (Bioorg Med Chem Lett, 2003)
